{"source": "paper PMC6433685", "about": "“Histone deacetylase inhibitor LMK235 attenuates vascular constriction and aortic remodelling in hypertension” (Journal of Cellular and Molecular Medicine, 2019)", "key": {"rat aortic rings": {"tested_on": "rat aortic rings", "assay": "Isometric tension: relaxation of U46619-induced contraction in rat aortic rings", "parameters": "species or system Sprague‐Dawley rats", "settings": "U46619 30 nmol/L, LMK235 cumulative 0.1-100 μmol/L", "text": "Male Sprague‐Dawley rats were purchased from Orient Bio (Gyeonggi‐do, South Korea). The thoracic aortas and mesenteric arteries were excised and immersed in an ice‐cold, modified Krebs solution composed of NaCl (115 mmol/L), KCl (4.7 mmol/L), CaCl2 (2.5 mmol/L), MgCl2 (1.2 mmol/L), NaHCO3 (25 mmol/L), KH2PO4 (1.2 mmol/L) and dextrose (10 mmol/L). Mesenteric arteries are secondary branches of the main mesenteric trunk. The aortas and mesenteric arteries were cleaned by removing adherent connective tissue, soaked in the Krebs‐bicarbonate solution and cut into four ring segments (3.5 mm in length), as described previously.14 Some rings were denuded of endothelium by gently rubbing the internal surface with the edge of the forceps. Each aortic ring was suspended in a water‐jacketed organ bath (6 mL) maintained at 37°C and aerated with a mixture of 95% O2 and 5% CO2. Each ring was connected to an isometric force transducer (Danish Myo Technology, Skejbyparken, Aarhus N, Denmark). Rings were stretched to an optimal resting tension of 2.0 g, which was maintained throughout the experiment. Each ring was equilibrated in the organ bath solution for 90 minutes before the experiment involving the contractile response to 50 mmol/L of KCl addition. […]"}, "A10 cells": {"tested_on": "A10 cells", "assay": "qRT-PCR in CaMKIIα-transfected A10 cells", "assay_type": "cell-based, rat", "experimental": "A10 cells were seeded into 12‐well dishes. A10 cells were transfected with the indicated concentrations of pCMV‐SPORT6‐CaMKIIα. After 24 hours of transfection, total RNA was extracted and quantitative real time polymerase chain reaction (qRT‐PCR) was performed. For knockdown of HDAC5, rat HDAC5 siRNA or sicontrol was used in A10 cells using RNAiMAX reagent according to the manufacturer's guidelines. A concentration of 100 nmol/L of siRNA was used.\nTotal RNA from aortic tissue was isolated with TRIzol reagent (Invitrogen Life Technologies), and 1 μg of RNA was used for the reverse transcription reaction with TOPscript RT DryMIX (Enzynomics, South Korea). Quantification of mRNA levels was performed with the SYBR Green PCR kit (Enzynomics, South Korea)."}, "HDAC6": {"biological_target": "T1, HDAC6 (Homo sapiens, UniProt Q9UBN7)", "T1 construct": "purchased BPS Bioscience 50076", "T1 sequence (Q9UBN7 whole entry)": "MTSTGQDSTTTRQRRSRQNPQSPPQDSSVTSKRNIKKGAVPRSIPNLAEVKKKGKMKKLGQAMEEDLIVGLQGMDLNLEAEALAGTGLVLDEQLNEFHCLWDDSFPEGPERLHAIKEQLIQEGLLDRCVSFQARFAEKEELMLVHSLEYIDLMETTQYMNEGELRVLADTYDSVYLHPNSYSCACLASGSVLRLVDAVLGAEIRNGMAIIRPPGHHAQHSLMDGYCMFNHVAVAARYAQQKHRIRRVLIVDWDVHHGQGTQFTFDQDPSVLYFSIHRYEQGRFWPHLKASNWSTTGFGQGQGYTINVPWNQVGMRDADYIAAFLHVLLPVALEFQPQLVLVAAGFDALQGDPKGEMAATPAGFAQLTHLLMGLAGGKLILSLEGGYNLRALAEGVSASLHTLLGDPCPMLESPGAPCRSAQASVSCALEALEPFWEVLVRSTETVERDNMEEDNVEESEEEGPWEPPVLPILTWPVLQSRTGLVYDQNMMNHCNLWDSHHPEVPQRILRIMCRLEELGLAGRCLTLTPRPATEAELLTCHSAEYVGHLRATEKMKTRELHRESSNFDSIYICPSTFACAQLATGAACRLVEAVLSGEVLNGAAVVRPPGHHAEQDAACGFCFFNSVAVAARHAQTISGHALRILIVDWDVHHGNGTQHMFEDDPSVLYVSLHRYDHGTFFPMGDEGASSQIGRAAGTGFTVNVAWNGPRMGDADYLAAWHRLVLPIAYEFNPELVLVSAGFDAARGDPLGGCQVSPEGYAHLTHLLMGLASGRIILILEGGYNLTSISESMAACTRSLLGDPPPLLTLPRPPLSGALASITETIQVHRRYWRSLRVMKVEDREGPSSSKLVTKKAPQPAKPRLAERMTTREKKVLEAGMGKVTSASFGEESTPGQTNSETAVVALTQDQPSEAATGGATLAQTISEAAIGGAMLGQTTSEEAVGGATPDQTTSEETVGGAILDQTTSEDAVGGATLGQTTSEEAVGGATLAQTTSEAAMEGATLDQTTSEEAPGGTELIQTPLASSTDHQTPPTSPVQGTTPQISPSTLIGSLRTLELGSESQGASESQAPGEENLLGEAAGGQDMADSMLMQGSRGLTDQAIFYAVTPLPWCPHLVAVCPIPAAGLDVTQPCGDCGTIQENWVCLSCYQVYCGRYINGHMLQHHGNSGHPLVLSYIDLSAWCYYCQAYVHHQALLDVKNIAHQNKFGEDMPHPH", "assay": "HDAC6 fluorogenic enzyme assay kit (BPS Bioscience), cell-free", "assay_type": "biochemical", "settings": "0.001-10 μmol/L inhibitor"}, "HDAC4": {"biological_target": "T2, HDAC4 (Homo sapiens, UniProt P56524)", "T2 construct": "purchased BPS Bioscience 50064", "T2 sequence (P56524 whole entry)": "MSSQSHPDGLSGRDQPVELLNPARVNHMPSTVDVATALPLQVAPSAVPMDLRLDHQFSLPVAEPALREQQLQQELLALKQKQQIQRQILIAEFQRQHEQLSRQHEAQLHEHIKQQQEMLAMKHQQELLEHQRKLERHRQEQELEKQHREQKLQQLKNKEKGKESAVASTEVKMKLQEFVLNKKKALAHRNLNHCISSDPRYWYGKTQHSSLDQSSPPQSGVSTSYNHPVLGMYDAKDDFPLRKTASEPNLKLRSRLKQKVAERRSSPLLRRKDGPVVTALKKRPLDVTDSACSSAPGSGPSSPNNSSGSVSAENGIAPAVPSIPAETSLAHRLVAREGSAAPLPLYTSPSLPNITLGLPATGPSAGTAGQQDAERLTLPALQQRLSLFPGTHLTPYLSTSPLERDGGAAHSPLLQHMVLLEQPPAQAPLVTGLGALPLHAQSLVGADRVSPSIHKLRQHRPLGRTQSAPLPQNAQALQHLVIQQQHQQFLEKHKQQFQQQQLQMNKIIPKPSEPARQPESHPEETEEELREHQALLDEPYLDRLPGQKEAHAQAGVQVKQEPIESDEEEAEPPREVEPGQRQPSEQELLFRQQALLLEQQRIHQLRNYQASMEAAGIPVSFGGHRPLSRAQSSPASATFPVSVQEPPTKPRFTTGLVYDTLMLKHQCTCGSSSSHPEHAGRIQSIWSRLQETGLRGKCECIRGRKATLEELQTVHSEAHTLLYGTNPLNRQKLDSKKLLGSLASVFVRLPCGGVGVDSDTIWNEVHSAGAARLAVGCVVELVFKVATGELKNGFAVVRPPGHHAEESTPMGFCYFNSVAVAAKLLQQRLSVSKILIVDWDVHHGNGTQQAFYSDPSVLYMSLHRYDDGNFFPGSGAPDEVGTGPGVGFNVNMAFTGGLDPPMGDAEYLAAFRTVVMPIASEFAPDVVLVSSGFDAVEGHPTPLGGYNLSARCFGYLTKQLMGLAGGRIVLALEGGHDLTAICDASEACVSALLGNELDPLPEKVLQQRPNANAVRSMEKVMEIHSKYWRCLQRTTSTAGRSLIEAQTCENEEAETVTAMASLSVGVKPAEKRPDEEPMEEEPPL", "assay": "HDAC4 fluorogenic enzyme assay kit (BPS Bioscience), cell-free", "assay_type": "biochemical", "settings": "0.001-10 μmol/L inhibitor"}, "HDAC1": {"biological_target": "T3, HDAC1 (Homo sapiens, UniProt Q13547)", "T3 construct": "purchased BPS Bioscience 50061", "T3 sequence (Q13547 whole entry)": "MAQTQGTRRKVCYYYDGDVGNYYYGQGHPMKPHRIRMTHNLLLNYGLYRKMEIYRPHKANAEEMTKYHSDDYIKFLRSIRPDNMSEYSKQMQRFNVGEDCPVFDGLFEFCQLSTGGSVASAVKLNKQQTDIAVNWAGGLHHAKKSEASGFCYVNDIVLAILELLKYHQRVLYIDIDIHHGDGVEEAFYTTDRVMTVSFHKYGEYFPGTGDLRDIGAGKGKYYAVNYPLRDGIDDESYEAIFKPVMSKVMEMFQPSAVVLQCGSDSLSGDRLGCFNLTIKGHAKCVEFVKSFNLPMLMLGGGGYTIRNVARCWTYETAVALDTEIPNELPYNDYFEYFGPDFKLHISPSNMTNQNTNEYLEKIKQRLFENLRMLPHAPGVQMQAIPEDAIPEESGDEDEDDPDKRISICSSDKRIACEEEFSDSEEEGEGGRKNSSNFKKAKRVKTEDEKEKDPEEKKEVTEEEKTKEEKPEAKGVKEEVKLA", "assay": "HDAC1 fluorogenic enzyme assay kit (BPS Bioscience), cell-free", "assay_type": "biochemical", "settings": "0.001-10 μmol/L inhibitor"}, "HDAC7": {"biological_target": "T4, HDAC7 (Homo sapiens, UniProt Q8WUI4)", "T4 construct": "purchased BPS Bioscience 50067", "T4 sequence (Q8WUI4 whole entry)": "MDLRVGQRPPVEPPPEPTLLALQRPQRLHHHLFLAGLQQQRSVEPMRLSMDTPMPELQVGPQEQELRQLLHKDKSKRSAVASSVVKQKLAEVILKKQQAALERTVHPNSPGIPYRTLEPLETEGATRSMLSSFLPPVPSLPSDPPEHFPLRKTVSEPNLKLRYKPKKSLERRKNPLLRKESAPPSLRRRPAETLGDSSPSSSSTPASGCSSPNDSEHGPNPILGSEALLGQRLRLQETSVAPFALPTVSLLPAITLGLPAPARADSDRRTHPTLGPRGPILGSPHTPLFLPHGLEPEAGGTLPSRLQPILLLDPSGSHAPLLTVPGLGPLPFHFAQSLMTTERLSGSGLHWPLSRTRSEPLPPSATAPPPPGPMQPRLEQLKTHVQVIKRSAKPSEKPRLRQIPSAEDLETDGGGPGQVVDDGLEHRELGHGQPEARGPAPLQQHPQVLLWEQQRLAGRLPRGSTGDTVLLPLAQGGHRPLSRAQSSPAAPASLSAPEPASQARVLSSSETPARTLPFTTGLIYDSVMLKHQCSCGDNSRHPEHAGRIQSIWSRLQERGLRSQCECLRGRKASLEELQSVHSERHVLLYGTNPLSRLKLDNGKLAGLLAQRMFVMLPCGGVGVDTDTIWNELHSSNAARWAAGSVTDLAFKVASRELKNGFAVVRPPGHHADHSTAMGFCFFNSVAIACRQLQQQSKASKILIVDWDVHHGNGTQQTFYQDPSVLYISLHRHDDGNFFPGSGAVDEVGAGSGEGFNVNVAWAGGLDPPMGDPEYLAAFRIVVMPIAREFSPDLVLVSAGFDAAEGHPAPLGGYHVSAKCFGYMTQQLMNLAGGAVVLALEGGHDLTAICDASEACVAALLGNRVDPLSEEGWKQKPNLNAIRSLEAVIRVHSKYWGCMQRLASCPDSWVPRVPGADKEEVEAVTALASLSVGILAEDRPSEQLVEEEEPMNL", "assay": "HDAC7 fluorogenic enzyme assay kit (BPS Bioscience), cell-free", "assay_type": "biochemical", "settings": "0.001-10 μmol/L inhibitor"}, "HDAC3": {"biological_target": "T5, HDAC3 (Homo sapiens, UniProt O15379)", "T5 construct": "purchased BPS Bioscience 50063", "T5 sequence (O15379 whole entry)": "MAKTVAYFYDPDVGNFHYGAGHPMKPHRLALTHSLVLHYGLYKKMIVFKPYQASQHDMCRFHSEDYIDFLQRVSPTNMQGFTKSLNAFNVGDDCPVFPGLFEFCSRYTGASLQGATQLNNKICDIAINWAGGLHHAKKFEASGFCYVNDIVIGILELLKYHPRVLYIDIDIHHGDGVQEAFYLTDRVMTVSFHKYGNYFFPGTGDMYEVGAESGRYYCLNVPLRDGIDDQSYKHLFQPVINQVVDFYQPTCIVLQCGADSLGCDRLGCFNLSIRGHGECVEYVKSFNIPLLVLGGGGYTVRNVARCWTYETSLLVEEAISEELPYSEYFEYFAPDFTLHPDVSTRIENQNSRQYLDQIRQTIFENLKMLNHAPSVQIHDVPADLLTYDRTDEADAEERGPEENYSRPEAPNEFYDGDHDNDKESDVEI", "T5 sequence (Q9Y618 395-489 partner limits assumed)": "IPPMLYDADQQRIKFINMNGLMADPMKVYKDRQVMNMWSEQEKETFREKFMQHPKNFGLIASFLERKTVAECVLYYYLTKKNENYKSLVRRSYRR", "assay": "HDAC3 fluorogenic enzyme assay kit (BPS Bioscience), cell-free", "assay_type": "biochemical", "settings": "0.001-10 μmol/L inhibitor"}, "[1]": {"tested_on": "spontaneously hypertensive rats (SHRs)", "assay": "Systolic BP (tail-cuff) in spontaneously hypertensive rats", "assay_type": "in vivo", "experimental": "(§1) For the essential hypertension animal experiment, SHRs were used. The SHR is the most used model animal model for hypertension and is generally regarded as an essential hypertension model.13 SHRs (6 weeks old, approximately 170 g) were purchased from Charles River (Yokohama, Japan). Rats were intraperitoneally administered LMK235 or vehicle every 3 days for 2 weeks (n = 4 per group).\n(§2) Systolic BP was measured by the tail‐cuff method (Visitech Systems, BP‐2000). Animals (mice and rats) were trained to allow for the measuring of BP before administration of the drug. Animals were trained to enter the holder at the same time more than three times a week to measure BP. For angiotensin II‐mice, systolic BP was measured when the mice were awake the day before they are killed. For SHRs, systolic BP was measured daily for 2 weeks."}, "SHR aortas": {"tested_on": "SHR aortas", "assay": "Aortic wall thickness (H&E) in SHRs", "assay_type": "in vivo, rats", "text": "as §1, with “group). The paraffin‐embedded tissues were cut into 3‐μm‐thick sections, deparaffinized with xylene and then rehydrated with graded alcohol. Haematoxylin and eosin (H&E) staining was performed as described, with slight modifications.15 The arterial wall thickness was measured using NIS Elements Software (Nikon, Japan).” for “group).”"}, "[2]": {"tested_on": "angiotensin II‐induced hypertensive mice", "assay": "Systolic BP (tail-cuff) in angiotensin II-infusion mice", "assay_type": "in vivo, CD‐1 mice", "settings": "Ang II-infusion mice; 1 mg/kg/day i.p. for 7 days", "experimental": "All animal procedures were approved by the Animal Experimental Committee of Chonnam National University Medical School (CNU IACUC‐H‐2014‐47) and carried out in accordance with the Guide for the Care and Use of Laboratory Animals (US National Institutes of Health Publications, 8th edition, 2011). CD‐1 mice (8 weeks old, 30‐35 g) were used in this study. Hypertension was induced by angiotensin II (Ang II, 1.3 mg/kg/day) infusion using 14‐day micro‐osmotic pumps (Alzet, model 1002; infusion rate of 0.25 μL/h) or saline alone. Ang II osmotic pumps were implanted subcutaneously after the injection of ketamine (120 mg/kg) and xylazine (6.2 mg/kg). One week after Ang II infusion, mice were administered LMK235 (1 or 3 mg/kg/day) or vehicle (dimethylsulphoxide [DMSO]) via intraperitoneal injection for 7 days. Mice were divided into three groups (n = 10‐12 per group): sham + vehicle, Ang II + vehicle, and Ang II + LMK235.\nas §2"}}}
{"smiles": "Cc1cc(C)cc(C(=O)NOCCCCCC(=O)NO)c1", "note": "[LMK235]", "values": [{"measurement": "U46619-induced vasoconstriction", "setting": "rat aortic rings; endothelium-denuded aortic rings", "value": "inhibited"}, {"measurement": "U46619-induced vasoconstriction", "setting": "rat aortic rings; endothelium-intact aortic rings", "value": "dose dependently reduced"}, {"measurement": "cyclin D1 mRNA levels induced by overexpression of CaMKIIα", "setting": "A10 cells; A10 cells, 1 μmol/L, 24 h", "value": "reduced"}, {"measurement": "mRNA levels of overexpressed CaMKIIα", "setting": "A10 cells; A10 cells, 1000 nmol/L, 24 hours", "value": "did not change"}, {"measurement": "mRNA expression of HDAC1, 2, 3, 4, 5, 7", "setting": "A10 cells; CaMKIIα-transfected A10 cells, 1 μmol/L, 24 h", "value": "significantly reduced"}, {"measurement": "IC50", "setting": "HDAC6", "value": 50, "unit": "nM"}, {"measurement": "IC50", "setting": "HDAC4", "value": "> 20000", "unit": "nM"}, {"measurement": "IC50", "setting": "HDAC1", "value": 30, "unit": "nM"}, {"measurement": "IC50", "setting": "HDAC7", "value": "> 20000", "unit": "nM"}, {"measurement": "IC50", "setting": "HDAC3", "value": 37, "unit": "nM"}, {"measurement": "hypertension lowering effect", "setting": "[1]; 1 mg/kg/day (data not shown)", "value": "did not exhibit a hypertension lowering effect"}, {"measurement": "duration of BP lowering effect", "setting": "[1]; 3 mg/kg i.p. every 3 days", "value": 2, "unit": "days"}, {"measurement": "systolic BP", "setting": "[1]; 3 mg/kg i.p. every 3 days, 2 days after treatment", "value": "significantly lowered"}, {"measurement": "systolic BP", "setting": "[1]; 3 mg/kg i.p. every 3 days, 3 days after administration", "value": "restored to a comparable level"}, {"measurement": "aortic wall thickness", "setting": "SHR aortas", "value": "reduced"}, {"measurement": "systolic BP", "setting": "[2]", "value": "sufficient to lower systolic BP"}]}
